Data taken from the supplement of paper PMC3974653.
Where a name gives a salt, the structure may show the parent alone.

Tested on: MTT (mouse pheochromocytoma)
Experiment: IC50 of cell viability (ATP content)
Conditions: (24 or 48 h)
Method in brief: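 After overnight culture at 37°C, 5% CO2 in white 1536-well plates, MTT mouse pheochromocytoma cells were given 23 nl of library compound in DMSO by pintool across 8 concentrations, spanning final 0.5 nM to 46 µM. Following 24 or 48 hrs, CellTiter-Glo luminescence was read after 15 minutes and normalised against positive-control (100%) and DMSO (0%) wells. A four-parameter logistic model provided the IC50.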

SMILES	IC50 of cell viability [µM]
CC1(C)S[C@@H]2[C@H](NC(=O)CC3=CC=CC=C3)C(=O)[N@@]2[C@@H]1C(O)=O [Capicillin]	> 46
COc1cc(CNC(=O)CCCC/C=C/C(C)C)ccc1O [Capsaicin]	> 46
NC(=O)N1C2=C(C=CC=C2)\C=C/C3=C1C=CC=C3 [Carbamazepine]	> 46
CNC(=O)Oc1cccc2ccccc12 [Carbaryl]	> 46
CN1CC(O)C2=C/C(=N/NC(N)=O)C(=O)C=C21 (stereo unspecified) [Carbazochrome]	> 46
CC1(C)S[C@@H]2[C@H](NC(=O)C(C(=O)Oc3ccc4c(c3)CCC4)c3ccccc3)C(=O)N2[C@H]1C(=O)O (stereo partly specified) [Carbenicillin indanyl]	> 46
[Na+].[Na+].CC1(C)[C@H](CC[C@@]2(C)[C@H]1CC[C@@]3(C)[C@H]2C(=O)\C=C4\[C@H]5C[C@@](C)(CC[C@]5(C)CC[C@]34C)C([O-])=O)OC(=O)CCC([O-])=O [Carbenoxolone disodium salt]	> 46
CCOC(=O)N1\C=C/N(C)C1=S [Carbimazole]	> 46
CN(C)CCOC(c1ccc(Cl)cc1)c1ccccn1 (stereo unspecified) [Carbinoxamine maleate]	> 46
CCOC(=O)NC(O)C(Cl)(Cl)Cl (stereo unspecified) [Carbocloral]	> 46
S=C=S [Carbon disulfide]	> 46
ClC(Cl)(Cl)Cl [Carbon tetrachloride]	> 46
CCCCNC(=O)N[S+](=O)([O-])c1ccc(N)cc1 [Carbutamide]	> 46
CCCC(C)(COC(N)=O)COC(=O)NC(C)C (stereo unspecified) [Carisoprodol]	> 46
O=NN(CCCl)C(=O)NCCCl [Carmustine]	> 46
CCN(CC)CCN1C(=O)\C(=N/C2=CC=CC=C12)CC3=CC=C(OC)C=C3 [Caroverine hydrochloride]	> 46
O=c1[nH]c(=O)c2ccccc2o1 [Carsalam]	> 46
CC(C)(C)NC[C@H](O)COc1cccc2c1CCC(=O)N2 [Carteolol hydrochloride]	> 46
COCC1=C(C(=O)OC(C)OC(=O)OC(C)C)N2C(=O)C(NC(=O)/C(=N\OC)c3csc(N)n3)C2SC1 (stereo unspecified) [Cefpodoxime proxetil]	> 46
[Na+].NC(=O)C1=CC=[N+](C\C2=C(\[N@]3[C@@H](SC2)[C@H](NC(=O)[C@H](C4=CC=CC=C4)[S]([O-])(=O)=O)C3=O)C([O-])=O)C=C1 [Cefsulodin sodium salt]	> 46
CC(C)(O/N=C(\C(=O)N[C@@H]1C(=O)N2C(C(=O)[O-])=C(C[n+]3ccccc3)CS[C@@H]12)c1csc(N)n1)C(=O)O.O.O.O.O.O [Ceftazidime pentahydrate]	> 46

SMILES	IC50 of cell viability [µM]
Cc1ccc(-c2cc(C(F)(F)F)nn2-c2ccc([S+](N)(=O)[O-])cc2)cc1 [Celecoxib]	> 46
CC(=O)OC[C@H]1O[C@@H](O[C@H]2[C@H](O)[C@@H](OC(=O)c3ccccc3C(=O)O)[C@H](O)O[C@@H]2COC(C)=O)[C@H](O)[C@@H](OC(=O)c2ccccc2C(=O)O)[C@@H]1O [Cellulose Acetate Phthalate]	> 46
CC(=O)OC\C1=C(\[N@]2[C@@H](SC1)[C@H](N)C2=O)C(O)=O [Cephalosporanic acid, 7-amino]	> 46
CNC1(c2ccccc2Cl)CCCCC1=O (stereo unspecified) [Cetamina]	> 46
O=C(O)COCCN1CCN([C@@H](c2ccccc2)c2ccc(Cl)cc2)CC1 [Cetirizine dihydrochloride]	> 46
[H]C1(CN)CC[C@@]([H])(CC1)C(=O)OC2=CC=C(CCC(O)=O)C=C2 (stereo unspecified) [Cetraxate hydrochloride]	> 46
C[C@H](CCC(=O)O)[C@@H]1CC[C@H]2[C@@H]3[C@@H](CC[C@@]21C)[C@@]1(C)CC[C@H](O)C[C@@H]1C[C@@H]3O [Chenodiol]	> 46
Cc1ccc(S(=O)(=O)[N-]Cl)cc1.O.O.O.[Na+] [Chloramine T trihydrate]	> 46
CCCCCCCCCCCCCCCC(=O)OCC(NC(=O)C(Cl)Cl)C(O)c1ccc([N+](=O)[O-])cc1 (stereo unspecified) [Chloramphenicol palmitate]	> 46
O=C(O)CCC(=O)OC[C@@H](NC(=O)C(Cl)Cl)[C@H](O)c1ccc([N+](=O)[O-])cc1 [Chloramphenicol succinate sodium salt]	> 46
O=C(N[C@H](CO)[C@H](O)c1ccc([N+](=O)[O-])cc1)C(Cl)Cl [Chloramphenicol]	> 46
N=C(NCCCCCCNC(=N)NC(=N)Nc1ccc(Cl)cc1)NC(=N)Nc1ccc(Cl)cc1 [Chlorhexidine]	> 46
Oc1ccc(Cl)c2c1CCC2 [Chlorindanol]	> 46
CC(=O)[C@@]1(O)CC[C@H]2[C@@H]3C=C(Cl)C4=CC(=O)CC[C@]4(C)[C@H]3CC[C@@]21C [Chlormadinone]	> 46
CN1C(=O)CC[S+](=O)([O-])C1c1ccc(Cl)cc1 (stereo unspecified) [Chlormezanone]	> 46
ClC(Cl)Cl [Chloroform]	> 46
CN(C)CCN(Cc1ccc(Cl)cc1)c1ccccn1 [Chloropyramine hydrochloride]	> 46
N[S+]([O-])(=O)C1=C(Cl)C=C2\N=C/N[S+]([O-])(=O)C2=C1 [Chlorothiazide]	> 46
COc1ccc(C(Cl)=C(c2ccc(OC)cc2)c2ccc(OC)cc2)cc1 [Chlorotrianisene]	> 46
Cc1cc(O)cc(C)c1Cl [Chloroxylenol]	> 46

More lines, now with the values ahead:

IC50 of cell viability [µM]	SMILES
> 46	N[C@@H](C(=O)N[C@H]1[C@H]2SC\C(=C(/N2C1=O)C(O)=O)Cl)C3=CC=CC=C3 [Cefaclorum]
> 46	C\C1=C(\[N@]2[C@@H](SC1)[C@H](NC(=O)[C@@H](N)C3=CC=C(O)C=C3)C2=O)C(O)=O [Cefadroxil]
> 46	CC1=C(C(=O)O)N2C(=O)[C@@H](NC(=O)[C@H](N)c3ccccc3)[C@H]2SC1 [Cefalexina]
> 46	NC(=O)C1=CC=[N+](C\C2=C(\[N@]3[C@@H](SC2)[C@H](NC(=O)CC4=CC=CS4)C3=O)C([O-])=O)C=C1 [Cefalonium]
> 46	CC(=O)OCC1=C(C(=O)[O-])N2C(=O)C(NC(=O)Cc3ccccc3)C2SC1 (stereo unspecified) [Cefaloram]
> 46	CC(=O)OCC1=C(C(=O)O)N2C(=O)[C@@H](NC(=O)Cc3cccs3)[C@H]2SC1 [Cefalotina]
> 46	Cn1nnnc1SCC1=C(C(=O)O)N2C(=O)[C@@H](NC(=O)[C@H](OC=O)c3ccccc3)[C@H]2SC1 [Cefamandole nafate]
> 46	[Na+].C[N]1N=NN=C1SC\C2=C(\[N@]3[C@@H](SC2)[C@H](NC(=O)[C@@H](O)C4=CC=CC=C4)C3=O)C([O-])=O [Cefamandole sodium salt]
> 46	Cc1nnc(SCC2=C(C(=O)O)N3C(=O)[C@@H](NC(=O)Cn4cnnn4)[C@H]3SC2)s1 [Cefazolin]
> 46	CC/C=C(/C(=O)N[C@@H]1C(=O)N2C(C(=O)OCOC(=O)C(C)(C)C)=C(COC(N)=O)CS[C@H]12)c1csc(N)n1 [Cefcapene pivoxil HCl]
> 46	CC/C=C(\C(=O)N[C@H]1C(=O)N2C(C(=O)OCOC(=O)C(C)(C)C)=C(COC(N)=O)CS[C@H]12)c1csc(N)n1 [Cefcapene pivoxil hydrochloride]
> 46	C=CC1=C(C(=O)O)N2C(=O)[C@@H](NC(=O)C(N=O)c3csc(N)n3)[C@H]2SC1 (stereo partly specified) [Cefdinir]
> 46	CO/N=C(\C(=O)N[C@@H]1C(=O)N2C(C(=O)[O-])=C(C[N+]3(C)CCCC3)CS[C@@H]12)c1csc(N)n1.Cl.O [Cefepime hydrochloride]
> 46	C=CC1=C(C(=O)O)N2C(=O)[C@@H](NC(=O)/C(=N\OCC(=O)O)c3csc(N)n3)[C@@H]2SC1 [Cefixime]
> 46	[Na+].CO[C@@]1(NC(=O)CSCC#N)[C@@H]2SC\C(=C(/N2C1=O)C([O-])=O)CSC3=NN=N[N]3C [Cefmetazole sodium salt]
> 46	NCC1=C(CC(=O)N[C@H]2[C@@H]3SC\C(=C(/N3C2=O)C(O)=O)CSC4=NN=N[N]4CC(O)=O)C=CC=C1 [Ceforanide]
> 46	CO/N=C(\C(=O)N[C@@H]1C(=O)N2C(C(=O)[O-])=C(COC(C)=O)CS[C@@H]12)c1csc(N)n1.[Na+] [Cefotaxime sodium salt]
> 46	CO[C@@]1(NC(=O)[C@@H]2S\C(S2)=C(\C(N)=O)C(O)=O)[C@@H]3SC\C(=C(/N3C1=O)C(O)=O)CSC4=NN=N[N]4C (stereo partly specified) [Cefotetan]
> 46	CN(C)CC[N]1N=NN=C1SC\C2=C(\[N@]3[C@@H](SC2)[C@H](NC(=O)CC4=CSC(=N4)N)C3=O)C(O)=O [Cefotiam hydrochloride]
> 46	CO[C@@]1(NC(=O)Cc2cccs2)C(=O)N2C(C(=O)O)=C(COC(N)=O)CS[C@@H]21 [Cefoxitin sodium salt]
> 46	COC/1=C(/N2[C@H](SC1)[C@H](NC(=O)C(N)C/3\C=C/C/C=C3)C2=O)C(O)=O (stereo partly specified) [Cefradoxil]
> 46	O=C(Cn1cnnn1)N[C@@H]1C(=O)N2C(C(=O)O)=C(CSc3nncs3)CS[C@H]12 [Ceftezole sodium]
> 46	CO/N=C(/C(=O)N[C@@H]1C(=O)N2C(C(=O)O)=C(COC(N)=O)CS[C@H]12)c1ccco1 [Cefuroxime Free Acid]
> 46	[Na+].CC(=O)OC\C1=C(\[N@]2[C@@H](SC1)[C@H](NC(=O)CSC3=CC=NC=C3)C2=O)C([O-])=O [Cephapirin sodium salt]
> 46	CC1=C(C(=O)O)N2C(=O)[C@@H](NC(=O)[C@H](N)C3=CCC=CC3)[C@H]2SC1 [Cephradine]
